In article PMC6757289, “Design and Characterization of SGK3-PROTAC1, an Isoform Specific SGK3 Kinase PROTAC Degrader” (ACS Chemical Biology, 2019):
Where two headings read alike, the source gives them in different places.

Experiments:
Assay in all cases: kinase profiling panel
Type in all cases: biochemical
Details in all cases: read-out: % Activity Remaining
[1] = target: CK1 delta (Homo sapiens, UniProt P48730)
Source text: (§1) Protein kinase profiling against a Dundee panel of 140 protein kinases was undertaken at the International Centre for Protein Kinase Profiling. The result for each kinase was presented as a mean kinase activity of the reaction taken in triplicate relative to a control sample treated with DMSO. Assay conditions and abbreviations are available at http://www.kinase-screen.mrc.ac.uk.

[2] = target: T1, LKB1 (Homo sapiens, UniProt Q15831)
T1 sequence (Q15831 1-433): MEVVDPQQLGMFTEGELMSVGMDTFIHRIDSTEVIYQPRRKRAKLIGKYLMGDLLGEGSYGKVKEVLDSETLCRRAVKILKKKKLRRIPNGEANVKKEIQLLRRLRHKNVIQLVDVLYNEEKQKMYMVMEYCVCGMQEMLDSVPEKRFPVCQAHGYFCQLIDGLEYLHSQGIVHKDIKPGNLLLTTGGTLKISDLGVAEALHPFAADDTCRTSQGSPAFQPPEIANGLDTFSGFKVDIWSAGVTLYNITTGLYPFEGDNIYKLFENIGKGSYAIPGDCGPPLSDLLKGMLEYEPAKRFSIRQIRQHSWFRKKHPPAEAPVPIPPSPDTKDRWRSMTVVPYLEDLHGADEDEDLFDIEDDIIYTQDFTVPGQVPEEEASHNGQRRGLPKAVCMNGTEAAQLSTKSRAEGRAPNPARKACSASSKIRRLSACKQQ
T1 sequence (Q7RTN6 1-431 partner): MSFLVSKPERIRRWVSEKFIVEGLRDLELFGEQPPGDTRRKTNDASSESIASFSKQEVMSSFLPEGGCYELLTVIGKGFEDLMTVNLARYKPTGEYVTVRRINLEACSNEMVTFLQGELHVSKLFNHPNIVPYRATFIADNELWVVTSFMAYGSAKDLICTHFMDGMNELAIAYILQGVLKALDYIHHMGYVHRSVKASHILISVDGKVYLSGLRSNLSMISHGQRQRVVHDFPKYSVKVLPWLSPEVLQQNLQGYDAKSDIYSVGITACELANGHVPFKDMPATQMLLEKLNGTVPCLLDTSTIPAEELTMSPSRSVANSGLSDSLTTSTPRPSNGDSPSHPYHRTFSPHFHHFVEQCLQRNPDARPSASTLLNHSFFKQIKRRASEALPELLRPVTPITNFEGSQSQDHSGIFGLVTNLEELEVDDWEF
T1 sequence (Q9Y376 1-341 partner): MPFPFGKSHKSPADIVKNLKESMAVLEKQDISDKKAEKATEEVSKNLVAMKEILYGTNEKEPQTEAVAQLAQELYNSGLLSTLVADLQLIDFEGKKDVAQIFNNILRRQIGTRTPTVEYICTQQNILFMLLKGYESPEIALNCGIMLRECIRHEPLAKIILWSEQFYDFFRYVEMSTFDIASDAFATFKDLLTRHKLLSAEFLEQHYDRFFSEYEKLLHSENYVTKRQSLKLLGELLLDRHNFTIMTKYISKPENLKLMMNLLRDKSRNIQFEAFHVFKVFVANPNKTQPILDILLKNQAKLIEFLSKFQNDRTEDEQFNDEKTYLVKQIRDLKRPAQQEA
Source text: as §1

[3] = target: T2, EPH-B4 (Homo sapiens, UniProt P54760)
T2 sequence (P54760 16-987): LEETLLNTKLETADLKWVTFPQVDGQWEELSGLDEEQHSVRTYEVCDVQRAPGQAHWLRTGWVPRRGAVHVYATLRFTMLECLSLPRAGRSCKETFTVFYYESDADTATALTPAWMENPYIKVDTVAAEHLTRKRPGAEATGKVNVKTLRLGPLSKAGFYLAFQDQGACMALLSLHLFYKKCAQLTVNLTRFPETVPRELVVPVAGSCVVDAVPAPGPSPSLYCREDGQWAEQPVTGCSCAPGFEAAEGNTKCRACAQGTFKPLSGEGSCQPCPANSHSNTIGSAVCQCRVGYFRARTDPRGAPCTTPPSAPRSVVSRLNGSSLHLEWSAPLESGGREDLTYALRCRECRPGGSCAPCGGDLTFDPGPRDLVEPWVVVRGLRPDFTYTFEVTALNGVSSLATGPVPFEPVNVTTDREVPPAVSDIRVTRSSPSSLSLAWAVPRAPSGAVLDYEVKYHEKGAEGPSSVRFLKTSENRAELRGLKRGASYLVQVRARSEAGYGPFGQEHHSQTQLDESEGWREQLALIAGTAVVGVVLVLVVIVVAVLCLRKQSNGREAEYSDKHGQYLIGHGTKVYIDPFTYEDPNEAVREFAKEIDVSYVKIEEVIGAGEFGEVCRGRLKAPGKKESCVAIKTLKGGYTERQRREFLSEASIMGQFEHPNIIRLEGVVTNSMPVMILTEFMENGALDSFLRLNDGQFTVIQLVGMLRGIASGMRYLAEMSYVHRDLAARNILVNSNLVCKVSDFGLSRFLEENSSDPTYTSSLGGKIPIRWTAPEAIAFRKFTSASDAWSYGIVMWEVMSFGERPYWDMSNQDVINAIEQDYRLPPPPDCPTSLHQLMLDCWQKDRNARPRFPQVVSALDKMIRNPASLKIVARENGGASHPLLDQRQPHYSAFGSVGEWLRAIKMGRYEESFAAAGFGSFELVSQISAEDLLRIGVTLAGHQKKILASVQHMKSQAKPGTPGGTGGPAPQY
Source text: as §1

[4] = target: T3, TBK1 (Homo sapiens, UniProt Q9UHD2)
T3 sequence (Q9UHD2 1-729): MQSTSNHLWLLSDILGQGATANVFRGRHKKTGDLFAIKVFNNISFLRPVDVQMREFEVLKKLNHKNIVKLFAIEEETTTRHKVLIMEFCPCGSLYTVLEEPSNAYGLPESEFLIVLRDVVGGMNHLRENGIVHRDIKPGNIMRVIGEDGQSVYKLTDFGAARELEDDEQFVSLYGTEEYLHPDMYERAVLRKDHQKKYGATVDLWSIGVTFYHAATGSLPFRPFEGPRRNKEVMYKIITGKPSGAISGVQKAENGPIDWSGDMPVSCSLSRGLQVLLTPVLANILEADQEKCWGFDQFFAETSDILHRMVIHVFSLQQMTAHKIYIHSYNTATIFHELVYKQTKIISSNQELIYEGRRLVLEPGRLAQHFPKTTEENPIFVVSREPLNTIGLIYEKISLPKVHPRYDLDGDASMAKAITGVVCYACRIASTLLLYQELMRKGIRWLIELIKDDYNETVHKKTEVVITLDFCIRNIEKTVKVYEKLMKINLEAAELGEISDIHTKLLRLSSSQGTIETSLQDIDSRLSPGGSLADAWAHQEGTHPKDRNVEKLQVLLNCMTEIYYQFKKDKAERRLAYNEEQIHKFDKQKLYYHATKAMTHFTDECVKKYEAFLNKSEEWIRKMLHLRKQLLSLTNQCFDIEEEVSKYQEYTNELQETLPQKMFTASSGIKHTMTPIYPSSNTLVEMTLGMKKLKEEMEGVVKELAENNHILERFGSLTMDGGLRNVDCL
Source text: as §1

Sequence of CK1 delta (P48730 whole entry): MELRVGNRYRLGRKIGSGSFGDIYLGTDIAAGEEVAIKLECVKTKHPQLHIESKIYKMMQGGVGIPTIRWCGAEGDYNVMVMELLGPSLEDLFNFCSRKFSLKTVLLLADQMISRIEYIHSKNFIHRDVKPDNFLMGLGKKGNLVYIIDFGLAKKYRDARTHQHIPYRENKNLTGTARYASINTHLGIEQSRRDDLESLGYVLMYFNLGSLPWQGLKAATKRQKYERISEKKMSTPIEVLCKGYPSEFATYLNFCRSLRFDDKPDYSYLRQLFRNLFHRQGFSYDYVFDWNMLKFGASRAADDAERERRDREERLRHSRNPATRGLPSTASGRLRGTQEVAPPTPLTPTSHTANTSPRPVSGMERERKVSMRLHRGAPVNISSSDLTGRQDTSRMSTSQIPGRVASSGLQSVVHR

Compound	remaining activity at 1 µM [1] [%]	remaining activity at 1 µM [2] [%]	remaining activity at 1 µM [3] [%]	remaining activity at 1 µM [4] [%]	remaining activity at 1 µM ([1]; 1 µM) [%]	remaining activity at 1 µM ([2]; 1 µM) [%]	remaining activity at 1 µM ([3]; 1 µM) [%]	remaining activity at 1 µM ([4]; 1 µM) [%]
COc1ccc(Cl)c(S(=O)(=O)Nc2ccc(-c3nc(OC[C@H]4CNCCO4)c4c(C)n[nH]c4n3)cc2)c1 [290-R, reference compound]	65	106	103	62	–	–	–	–
Cc1ccc(F)c(S(=O)(=O)Nc2ccc(-c3nc(OC[C@H]4CNCCO4)c4cn[nH]c4n3)cc2)c1 [308-R, reference compound]	121	96	124	83	–	–	–	–
Cc1ccc(F)c(S(=O)(=O)Nc2ccc(-c3nc(OC[C@H]4CN(CCCCCCOCCOCCOCC(=O)N[C@H](C(=O)N5C[C@H](O)C[C@H]5C(=O)NCc5ccc(-c6scnc6C)cc5)C(C)(C)C)CCO4)c4cn[nH]c4n3)cc2)c1 [SGK3-PROTAC1]	–	–	–	–	95	105	107	93
Cc1ccc(F)c(S(=O)(=O)Nc2ccc(-c3nc(OC[C@H]4CN(CCCCCCOCCOCCOCC(=O)N[C@H](C(=O)N5C[C@@H](O)C[C@H]5C(=O)NCc5ccc(-c6scnc6C)cc5)C(C)(C)C)CCO4)c4cn[nH]c4n3)cc2)c1 [cisSGK3-PROTAC1]	–	–	–	–	108	112	108	111
